Source: patent US12606552B2, “Bifunctional compound, preparation method therefor, and use thereof” (SUZHOU KINTOR PHARMACEUTICALS, INC., priority 2020, dated 2026)

Key:
[1] = Pharmacokinetic studies of compounds in mice; assay type: in vivo; details: male mice, intragastric administration 10 mg/kg, plasma
Method: Activity Assay Example 3: Pharmacokinetic Studies of Compounds in Mice
In this test, 3 male mice were selected and divided into 1 group, 3 mice/group. All animals were fasted overnight before administration.
The intragastric administration dose was 10 mg/kg, and the administration volume was 10 mL/kg.
2.2 Preparation of Drug Solution
According to the animal body weight combined with the administration dose, the amount of the required drug solution was calculated. An appropriate amount of the test substance was weighed, added with 5% of the final volume of ethanol for dissolution, then added with 5% of the final volume of SolutolHS15, and finally added with PBS to the final volume, and mixed by vortex and fully dissolved to obtain a solution for intragastric administration (1 mg/mL). All solutions were prepared for immediate use.
2.3 Method of Administration
Before administration, the drug solution was placed on a magnetic stirrer in the animal laboratory and stirred for at least 10 min. During the administration process, vortex was continued to ensure uniformity of the drug solution. The theoretical volume of gavage administration was 10 mL/kg, which was administered with a syringe equipped with a gavage needle.
Before administration, the animals were weighed and the body weight of the animals involved in the experiment was recorded, and the administration volume of each animal was calculated according to the body weight. After administration, animals were promptly transferred back to the experimental cages to collect samples.
2.4 Observation of Animal Status
After administration, whether animals had abnormal reactions was observed immediately. If there were no abnormal reactions, animals were observed twice a day during the experiment. If abnormal reactions were found, they should be recorded in time, and the number of observations should be increased until the animals returned to normal or to the end of the experiment.
2.5 Sample Collection and Preservation
All experimental animals were fasted overnight before administration, and blood was collected at corresponding time points into blood collection tubes containing heparin sodium anticoagulant. After the whole blood was collected, the blood collection tube was gently shaken and placed on ice immediately, and then centrifuged (4° C., 4000 rpm, 10 min) to collect supernatant plasma samples, which were stored in a refrigerator at −80° C. before analysis.
2.6 Plasma Sample Processing and Analysis
The collected plasma samples were handed over to the Pharmacokinetic department for sample extraction, and the test substances in the plasma were extracted by protein precipitation method using organic reagents containing internal standards (acetonitrile:plasma=4:1, v/v). The extracted processed samples were submitted for quantitative concentration analysis by LC-MS/MS. According to the plasma concentration of each animal obtained by the analysis, software Kinetica (version 5.0) was used to calculate the main pharmacokinetic parameter eAUC30-120 according to the non-compartment model to evaluate the exposure amount; the test results are shown in Table 2: […]

AR = target: T1, AR (Homo sapiens, UniProt P10275, T878A); assay: Effects of compounds on AR expression in LNCaP cells (ELISA, DC50); assay type: cell-based; parameters: Measurement of the Effects of Drugs on the Expression of AR in Cells by ELISA Method; endogenous in cells; host or cells: LNCaP; details: 24 hours of drug treatment, AR by ELISA
T1 sequence (P10275 1-920 T878A): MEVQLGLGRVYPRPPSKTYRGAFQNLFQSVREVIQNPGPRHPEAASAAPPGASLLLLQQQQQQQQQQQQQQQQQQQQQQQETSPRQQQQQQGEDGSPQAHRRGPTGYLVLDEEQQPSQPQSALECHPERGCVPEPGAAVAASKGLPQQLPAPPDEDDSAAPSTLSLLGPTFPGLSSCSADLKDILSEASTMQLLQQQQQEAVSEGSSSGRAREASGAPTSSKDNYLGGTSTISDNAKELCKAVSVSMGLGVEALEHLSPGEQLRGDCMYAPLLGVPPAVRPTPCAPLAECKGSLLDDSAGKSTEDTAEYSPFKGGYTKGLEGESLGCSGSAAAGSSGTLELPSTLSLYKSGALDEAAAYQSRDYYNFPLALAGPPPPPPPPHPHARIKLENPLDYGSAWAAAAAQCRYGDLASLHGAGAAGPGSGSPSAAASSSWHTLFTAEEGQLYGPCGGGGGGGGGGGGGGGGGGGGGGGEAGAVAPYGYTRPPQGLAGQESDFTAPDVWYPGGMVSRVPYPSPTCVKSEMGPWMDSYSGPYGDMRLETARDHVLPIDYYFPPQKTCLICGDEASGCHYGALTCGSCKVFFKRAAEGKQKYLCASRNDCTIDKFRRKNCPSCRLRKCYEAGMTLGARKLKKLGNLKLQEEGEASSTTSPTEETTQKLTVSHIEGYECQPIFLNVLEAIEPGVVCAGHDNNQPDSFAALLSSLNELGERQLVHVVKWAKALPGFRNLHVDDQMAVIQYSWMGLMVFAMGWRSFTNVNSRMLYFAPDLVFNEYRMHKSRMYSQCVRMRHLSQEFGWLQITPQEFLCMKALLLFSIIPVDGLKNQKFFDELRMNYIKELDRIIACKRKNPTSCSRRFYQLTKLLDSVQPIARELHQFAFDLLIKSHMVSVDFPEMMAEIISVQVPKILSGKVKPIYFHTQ
In short: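 LNCaP cells at about 15,000/well were treated for 24 h with compound at 0.0001–2 μmol/L final. AR in cell lysates was measured by ELISA (OD450). Inhibition was relative to DMSO control after blank subtraction, and DC50 was calculated from it.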

SMILES	eAUC0.5-2 h [1]	DC50 (AR)
CC1(C)C(=O)N(c2ccc(C#N)c(C(F)(F)F)c2F)C(=S)N1c1ccc(-c2ccc(OCCNC(=O)COc3cccc4c3C(=O)N(C3CCC(=O)NC3=O)C4=O)c(F)c2)nc1 (stereo not drawn) [Compound A35]	71 ± 51 ng·h/mL	117 nM
CC1(C)C(=O)N(c2ccc(C#N)c(C(F)(F)F)c2F)C(=S)N1c1ccc(-c2ccc(OCCNC(=O)COc3cccc4c3C(=O)N(C3CCC(=O)NC3=O)C4=O)c(C#N)c2)nc1 (stereo not drawn) [Compound A36]	29 ± 12 ng·h/mL	93 nM
CC1(C)C(=O)N(c2ccc(C#N)c(C(F)(F)F)c2F)C(=S)N1c1ccc(-c2ccc(OC3CCN(C(=O)COc4cccc5c4C(=O)N(C4CCC(=O)NC4=O)C5=O)CC3)cc2)nc1 (stereo not drawn) [Compound A37]	98 ± 48 ng·h/mL	18.6 nM
Cc1ncsc1-c1ccc(CNC(=O)[C@@H]2C[C@@H](O)CN2C(=O)[C@@H](NC(=O)COCCCCOc2ccc(-c3ccc(N4C(=S)N(c5ccc(C#N)c(C(F)(F)F)c5F)C(=O)C4(C)C)cn3)cc2F)C(C)(C)C)cc1 [Compound A55]	396 ± 79 ng·h/mL	38.8 nM
Cc1ncsc1-c1ccc(CNC(=O)[C@@H]2C[C@@H](O)CN2C(=O)[C@@H](NC(=O)COCCCCOc2ccc(-c3ccc(N4C(=S)N(c5ccc(C#N)c(C(F)(F)F)c5F)C(=O)C4(C)C)cn3)cc2C#N)C(C)(C)C)cc1 [Compound A57]	182 ± 84 ng·h/mL	31.8 nM
Cc1ncsc1-c1ccc(CNC(=O)[C@@H]2C[C@@H](O)CN2C(=O)[C@@H](NC(=O)COCCCCOc2ccc(-c3ncc(N4C(=S)N(c5ccc(C#N)c(C(F)(F)F)c5F)C(=O)C4(C)C)cc3C(F)(F)F)cc2)C(C)(C)C)cc1 [Compound A62]	498 ± 124 ng·h/mL	80 nM
Cc1ncsc1-c1ccc(CNC(=O)[C@@H]2C[C@@H](O)CN2C(=O)[C@@H](NC(=O)COCCCCOc2ccc(-c3ncc(N4C(=S)N(c5ccc(C#N)c(C(F)(F)F)c5F)C(=O)C4(C)C)cc3F)cc2)C(C)(C)C)cc1 [Compound A63]	373 ± 242 ng·h/mL	37.9 nM
Cc1ncsc1-c1ccc(CNC(=O)[C@@H]2C[C@@H](O)CN2C(=O)[C@@H](N(C)C(=O)COCCCCOc2ccc(-c3ccc(N4C(=S)N(c5ccc(C#N)c(C(F)(F)F)c5F)C(=O)C4(C)C)cn3)cc2)C(C)(C)C)cc1 [Compound A66]	525 ± 106 ng·h/mL	213 nM
Cc1ncsc1-c1ccc(CNC(=O)[C@@H]2C[C@@H](O)CN2C(=O)[C@@H](NC(=O)COCCCCOc2ccc(-c3ncc(N4C(=S)N(c5ccc(C#N)c(C(F)(F)F)c5F)C(=O)C4(C)C)cc3F)cc2F)C(C)(C)C)cc1 [Compound A70]	1686 ± 938 ng·h/mL	62.1 nM
Cc1ncsc1-c1ccc(CNC(=O)[C@@H]2C[C@@H](O)CN2C(=O)[C@@H](NC(=O)COCCOc2ccc(-c3ccc(N4C(=S)N(c5ccc(C#N)c(C(F)(F)F)c5F)C(=O)C4(C)C)cn3)cc2)C(C)(C)C)cc1 [Compound A71]	287 ± 135 ng·h/mL	62.1 nM
Cc1ncsc1-c1ccc(CNC(=O)[C@@H]2C[C@@H](O)CN2C(=O)[C@@H](NC(=O)COCCCOc2ccc(-c3ccc(N4C(=S)N(c5ccc(C#N)c(C(F)(F)F)c5F)C(=O)C4(C)C)cn3)cc2F)C(C)(C)C)cc1 [Compound A72]	240 ± 68 ng·h/mL	35.1 nM
Cc1ncsc1-c1ccc(CNC(=O)[C@@H]2C[C@@H](O)CN2C(=O)[C@@H](NC(=O)COCCCCCOc2ccc(-c3ccc(N4C(=S)N(c5ccc(C#N)c(C(F)(F)F)c5F)C(=O)C4(C)C)cn3)cc2)C(C)(C)C)cc1 [Compound A73]	189 ± 108 ng·h/mL	49.3 nM
Cc1ncsc1-c1ccc(CNC(=O)[C@@H]2C[C@@H](O)CN2C(=O)[C@@H](NC(=O)COCCCCOc2ccc(-c3ncc(N4C(=S)N(c5ccc(C#N)c(C(F)(F)F)c5F)C(=O)C4(C)C)cc3C(F)(F)F)cc2F)C(C)(C)C)cc1 [Compound A74]	746 ± 158 ng·h/mL	77.8 nM
Cc1ncsc1-c1ccc(CNC(=O)[C@@H]2C[C@@H](O)CN2C(=O)[C@@H](NC(=O)COCCCCOc2c(F)cc(-c3ncc(N4C(=S)N(c5ccc(C#N)c(C(F)(F)F)c5F)C(=O)C4(C)C)cc3F)cc2F)C(C)(C)C)cc1 [Compound A77]	1354 ± 205 ng·h/mL	114 nM
Cc1ncsc1-c1ccc(CNC(=O)[C@@H]2C[C@@H](O)CN2C(=O)[C@@H](NC(=O)COCCCCOc2ccc(-c3ncc(N4C(=S)N(c5ccc(C#N)c(C(F)(F)F)c5F)C(=O)C4(C)C)cc3F)cc2C#N)C(C)(C)C)cc1 [Compound A78]	187 ± 66 ng·h/mL	57.4 nM
Cc1ncsc1-c1ccc(CNC(=O)[C@@H]2C[C@@H](O)CN2C(=O)[C@@H](NC(=O)COCCCCOc2c(F)cc(-c3ncc(N4C(=S)N(c5ccc(C#N)c(C(F)(F)F)c5F)C(=O)C4(C)C)cc3C(F)(F)F)cc2F)C(C)(C)C)cc1 [Compound A79]	950 ± 114 ng·h/mL	129 nM
Cc1ncsc1-c1ccc(CNC(=O)[C@@H]2C[C@@H](O)CN2C(=O)[C@@H](NC(=O)CCc2ccc(C(=O)Nc3ccc(-c4ccc(N5C(=S)N(c6ccc(C#N)c(C(F)(F)F)c6F)C(=O)C5(C)C)cn4)cc3)cc2)C(C)(C)C)cc1 [Compound A252]		95.9 nM
Cc1ncsc1-c1ccc(CNC(=O)[C@@H]2C[C@@H](O)CN2C(=O)[C@@H](NC(=O)COCCOCCCCOc2ccc(N3C(=S)N(c4ccc(C#N)c(C(F)(F)F)c4F)C(=O)C3(C)C)cn2)C(C)(C)C)cc1 [Compound A254]		52.5 nM
Cc1ncsc1-c1ccc(CNC(=O)[C@@H]2C[C@@H](O)CN2C(=O)[C@@H](NC(=O)Cc2ccc(C(=O)Nc3ccc(-c4ncc(N5C(=S)N(c6ccc(C#N)c(C(F)(F)F)c6F)C(=O)C5(C)C)cc4F)c(C(F)(F)F)c3)cc2)C(C)(C)C)cc1 [Compound A256]		119 nM
Cc1ncsc1-c1ccc(CNC(=O)[C@@H]2C[C@@H](O)CN2C(=O)[C@@H](NC(=O)COc2ncc(N3C(=S)N(c4ccc(C#N)c(C(F)(F)F)c4F)C(=O)C3(C)C)cc2F)C(C)(C)C)cc1 [Compound A264]		870 nM
Cc1ncsc1-c1ccc(CNC(=O)[C@@H]2C[C@@H](O)CN2C(=O)[C@@H](NC(=O)COCCOCCOc2ncc(N3C(=S)N(c4ccc(C#N)c(C(F)(F)F)c4F)C(=O)C3(C)C)cc2F)C(C)(C)C)cc1 [Compound A265]		381 nM
Cc1ncsc1-c1ccc(CNC(=O)[C@@H]2C[C@@H](O)CN2C(=O)[C@@H](NC(=O)COCCOCCCOc2ncc(N3C(=S)N(c4ccc(C#N)c(C(F)(F)F)c4F)C(=O)C3(C)C)cc2F)C(C)(C)C)cc1 [Compound A267]		119 nM
Cc1ncsc1-c1ccc(CNC(=O)[C@@H]2C[C@@H](O)CN2C(=O)[C@@H](NC(=O)COCCOc2ncc(N3C(=S)N(c4ccc(C#N)c(C(F)(F)F)c4F)C(=O)C3(C)C)cc2C(F)(F)F)C(C)(C)C)cc1 [Compound A269]		766 nM
